In patent publication US20190292174A1, “MICROBIOCIDAL OXADIAZOLE DERIVATIVES” (SYNGENTA PARTICIPATIONS AG, priority 2016, published 2019) one finds pest or weed control, melting point and inhibition of growth data, which are given here for 18 compounds.

Data set [1] relates to Puccinia recondita f. sp. tritici. Put plainly: Puccinia recondita f. sp. tritici / wheat / leaf disc preventative (brown rust). The class given is in vivo. The conditions noted are these: foliar, wheat leaf segments cv. Kanzler, preventative (inoculated 1 day after application), compared to untreated control. Here is the method:
Leaf disks or leaf segments of various plant species are cut from plants grown in a greenhouse. The cut leaf disks or segments are placed in multiwell plates (24-well format) onto water agar. The leaf disks are sprayed with a test solution before (preventative) or after (curative) inoculation. Compounds to be tested are prepared as DMSO solutions (max. 10 mg/ml) which are diluted to the appropriate concentration with 0.025% Tween20 just before spraying. The inoculated leaf disks or segments are incubated under defined conditions (temperature, relative humidity, light, etc.) according to the respective test system. A single evaluation of disease level is carried out 3 to 14 days after inoculation, depending on the pathosystem. Percent disease control relative to the untreated check leaf disks or segments is then calculated. Wheat leaf segments cv. Kanzler are placed on agar in multiwell plates (24-well format) and sprayed with the formulated test compound diluted in water. The leaf disks are inoculated with a spore suspension of the fungus 1 day after application. The inoculated leaf segments are incubated at 19° C. and 75% rh under a light regime of 12 h light/12 h darkness in a climate cabinet and the activity of a compound is assessed as percent disease control compared to untreated when an appropriate level of disease damage appears in untreated check leaf segments (7-9 days after application).

In another data set the test system is Phakopsora pachyrhizi. Put plainly: Phakopsora pachyrhizi / soybean / leaf disc preventative (Asian soybean rust). In kind it is in vivo. To be noted: foliar, soybean leaf disks, compared to untreated control. Here is the method: Leaf disks or leaf segments of various plant species are cut from plants grown in a greenhouse. The cut leaf disks or segments are placed in multiwell plates (24-well format) onto water agar. The leaf disks are sprayed with a test solution before (preventative) or after (curative) inoculation. Compounds to be tested are prepared as DMSO solutions (max. 10 mg/ml) which are diluted to the appropriate concentration with 0.025% Tween20 just before spraying. The inoculated leaf disks or segments are incubated under defined conditions (temperature, relative humidity, light, etc.) according to the respective test system. A single evaluation of disease level is carried out 3 to 14 days after inoculation, depending on the pathosystem. Percent disease control relative to the untreated check leaf disks or segments is then calculated. Soybean leaf disks are placed on water agar in multiwell plates (24-well format) and sprayed with the formulated test compound diluted in water. One day after application leaf discs are inoculated by spraying a spore suspension on the lower leaf surface. After an incubation period in a climate cabinet of 24-36 hours in darkness at 20° C., and 75% rh leaf disc are kept at 20° C. with 12 h light/day and 75% rh. The activity of a compound is assessed as percent disease control compared to untreated when an appropriate level of disease damage appears in untreated check leaf disks (12-14 days after application).

Data set [2] relates to Puccinia recondita f. sp. tritici. In words: Puccinia recondita f. sp. tritici / wheat / leaf disc curative (brown rust). The class given is in vivo. The conditions noted are these: foliar, 24 h, wheat leaf segments cv. Kanzler, curative (applied 1 day after inoculation), compared to untreated control, read-out: control of Puccinia recondita f. sp. tritic. As to the method:
Leaf disks or leaf segments of various plant species are cut from plants grown in a greenhouse. The cut leaf disks or segments are placed in multiwell plates (24-well format) onto water agar. The leaf disks are sprayed with a test solution before (preventative) or after (curative) inoculation. Compounds to be tested are prepared as DMSO solutions (max. 10 mg/ml) which are diluted to the appropriate concentration with 0.025% Tween20 just before spraying. The inoculated leaf disks or segments are incubated under defined conditions (temperature, relative humidity, light, etc.) according to the respective test system. A single evaluation of disease level is carried out 3 to 14 days after inoculation, depending on the pathosystem. Percent disease control relative to the untreated check leaf disks or segments is then calculated. Wheat leaf segments cv. Kanzler are placed on agar in multiwell plates (24-well format). The leaf segments are inoculated with a spore suspension of the fungus. Plates are stored in darkness at 19° C., and 75% rh. The formulated test compound diluted in water is applied 1 day after inoculation. The leaf segments are incubated at 19° C., and 75% rh under a light regime of 12 h light/12 h darkness in a climate cabinet and the activity of a compound is assessed as percent disease control compared to untreated when an appropriate level of disease damage appears in untreated check leaf segments (6-8 days after application).

Data set [3] concerns Glomerella lagenarium (Colletotrichum lagenarium). Put plainly: Glomerella lagenarium (Colletotrichum lagenarium) liquid culture / cucumber / preventative (anthracnose). The class given is cell-based. To be noted: Colletotrichum orbiculare, liquid culture (PDB), growth inhibition measured photometrically 3-4 days after application, compared to untreated control. Here is the method:
[…] fragments or conidia suspensions of a fungus prepared either freshly from liquid cultures of the fungus or from cryogenic storage, are directly mixed into nutrient broth. DMSO solutions of the test compound (max. 10 mg/ml) are diluted with 0.025% Tween20 by a factor of 50 and 10 μl of this solution is pipetted into a microtiter plate (96-well format). The nutrient broth containing the fungal spores/mycelia fragments is then added to give an end concentration of the tested compound. The test plates are incubated in the dark at 24° C., and 96% relative humidity. The inhibition of fungal growth is determined photometrically after 2 to 7 days, depending on the pathosystem, and percent antifungal activity relative to the untreated check is calculated. Conidia of the fungus from cryogenic storage are directly mixed into nutrient broth (PDB potato dextrose broth). Alter placing a (DMSO) solution of test compound into a microtiter plate (96-well format), the nutrient broth containing the fungal spores is added. The test plates are incubated at 24° C., and the inhibition of growth is measured photometrically 3-4 days after application.

For the compound `CC(C)(C)NC(=O)CN(C(=O)c1ccc(-c2noc(C(F)(F)F)n2)cc1)N1CCOC1=O` [Compound 1.2, N-[2-(tert-butylamino)-2-oxo-ethyl]-N-(2-oxooxazolidin-3-yl)-4-[5-(trifluoromethyl)-1,2,4-oxadiazol-3-yl]benzamide], the pest or weed control at 200 ppm (in data set [1]; in the data set on Phakopsora pachyrhizi) was no less than 80% each time.

Consider `CC(=O)NNC(=O)c1ccc(-c2noc(C(F)(F)F)n2)cc1F` [Compound 1.4, N′-acetyl-2-fluoro-4-[5-(trifluoromethyl)-1,2,4-oxadiazol-3-yl]benzohydrazide], for which the pest or weed control at 200 ppm (in data set [1]; in data set [2]; in the data set on Phakopsora pachyrhizi) was no less than 80% throughout.

The term melting point denotes the temperature of the solid-liquid transition. Usually inhibition of growth stands for the share of the control response that was lost under treatment. A higher inhibition of growth goes with a strong effect. Turning to `NN(C(=O)c1ccccc1)C(=O)c1ccc(-c2noc(C(F)(F)F)n2)cc1` [Compound 1.5, N-benzoyl-4-[5-(trifluoromethyl)-1,2,4-oxadiazol-3-yl]benzohydrazide], the melting point lay within 115.3 to 118.6 °C. In data set [1], this compound displayed a pest or weed control at 200 ppm of no less than 80%. This compound also displayed an inhibition of growth at 20 ppm in data set [3] of no less than 80%.

For the compound `O=C(NN1CCCCC1=O)c1ccc(-c2noc(C(F)(F)F)n2)cc1` [Compound 1.7, N-(2-oxo-1-piperidyl)-4-[5-(trifluoromethyl)-1,2,4-oxadiazol-3-yl]benzamide], the melting point was in the range of 192 to 216 °C. For the same compound, the pest or weed control at 200 ppm in data set [1] is no less than 80%. The compound further registered a pest or weed control at 200 ppm with Phakopsora pachyrhizi of no less than 80%.

Consider `CN1CCN(NC(=O)c2ccc(-c3noc(C(F)(F)F)n3)cc2)C1=O` [Compound 1.8, N-(3-methyl-2-oxo-imidazolidin-1-yl)-4-[5-(trifluoromethyl)-1,2,4-oxadiazol-3-yl]benzamide], for which the melting point was 238 to 245 °C. This compound also came in with a pest or weed control at 200 ppm in data set [1] of no less than 80%. Further, the pest or weed control at 200 ppm in the data set on Phakopsora pachyrhizi is no less than 80%.

On to `O=C1CN(NC(=O)c2ccc(-c3noc(C(F)(F)F)n3)cc2)C(=O)N1` [Compound 1.9], for which the melting point is 192 to 196 °C. The pest or weed control at 200 ppm in data set [2] is no less than 80%. This compound also returned a pest or weed control at 200 ppm in the data set with Phakopsora pachyrhizi of no less than 80%.

In the case of `O=C(NN1CCc2ccccc21)c1ccc(-c2noc(C(F)(F)F)n2)cc1` [Compound 1.10, N-indolin-1-yl-4-[5-(trifluoromethyl)-1,2,4-oxadiazol-3-yl]benzamide], the melting point lay within 167 to 170 °C. The compound also gave a pest or weed control at 200 ppm in data set [1] of no less than 80%. Further, the inhibition of growth at 20 ppm in data set [3] was no less than 80%.

On to `O=C(Nn1ccc2ccccc21)c1ccc(-c2noc(C(F)(F)F)n2)cc1` [Compound 1.11, N-indol-1-yl-4-[5-(trifluoromethyl)-1,2,4-oxadiazol-3-yl]benzamide], for which the melting point was 188 to 190 °C. Further, in data set [1], the pest or weed control at 200 ppm was no less than 80%. The compound also had an inhibition of growth at 20 ppm in data set [3] of no less than 80%.

`O=C(NN1CCCCC1=O)c1c(F)cc(-c2noc(C(F)(F)F)n2)cc1F` [Compound 1.12, 2,6-difluoro-N-(2-oxo-1-piperidyl)-4-[5-(trifluoromethyl)-1,2,4-oxadiazol-3-yl]benzamide] registered a melting point of 205 to 209 °C. The compound also registered an inhibition of growth at 20 ppm in data set [3] of no less than 80%.

As to `Cc1cc(-c2noc(C(F)(F)F)n2)cnc1C(=O)NN1CCCCC1=O` [Compound 1.13, 3-methyl-N-(2-oxo-1-piperidyl)-5-[5-(trifluoromethyl)-1,2,4-oxadiazol-3-yl]pyridine-2-carboxamide], the melting point was 159 to 162 °C.

Turning to `O=C(NN1CCOCC1)c1ccc(-c2noc(C(F)(F)F)n2)c(F)c1` [Compound 1.16, 3-fluoro-N-morpholino-4-[5-(trifluoromethyl)-1,2,4-oxadiazol-3-yl]benzamide], the melting point was in the range of 140 to 160 °C. In data set [1], this compound displayed a pest or weed control at 200 ppm of no less than 80%. This compound returned a pest or weed control at 200 ppm with Phakopsora pachyrhizi of no less than 80%.

Take `O=C(NNCCO)c1ccc(-c2noc(C(F)(F)F)n2)cc1` [Compound 1.18, N′-(2-hydroxyethyl)-4-[5-(trifluoromethyl)-1,2,4-oxadiazol-3-yl]benzohydrazide]: the melting point was 140 to 149 °C. The compound also came in with a pest or weed control at 200 ppm in data set [1] of no less than 80%. Besides, the pest or weed control at 200 ppm in data set [2] was no less than 80%. Also, in data set [3], the inhibition of growth at 20 ppm was no less than 80%.

`O=C(NN1CCOC1=O)c1ccc(-c2noc(C(F)(F)F)n2)c(F)c1` [Compound 1.25, 3-fluoro-N-(2-oxooxazolidin-3-yl)-4-[5-(trifluorormethyl)-1,2,4-oxadiazol-3-yl]benzamide] gave a melting point of 146 to 166 °C. In addition, the pest or weed control at 200 ppm in data set [1] is no less than 80%. The pest or weed control at 200 ppm in data set [2] was no less than 80%. The same compound returned an inhibition of growth at 20 ppm in data set [3] of no less than 80%.

Compound `O=C(Cc1ccc(-c2noc(C(F)(F)F)n2)cc1F)NN1CCOCC1` [Compound 1.28, 2-[2-fluoro-4-[5-(trifluoromethyl)-1,2,4-oxadiazoi-3-yl]phenyl]-N-morpholino-acetamide] gave a melting point of 201 to 203 °C. Also, in data set [2], the pest or weed control at 200 ppm was no less than 80%. This compound also returned an inhibition of growth at 20 ppm in data set [3] of no less than 80%.

In turn, `O=C(Cc1ccc(-c2noc(C(F)(F)F)n2)cc1F)NN1CCCCC1=O` [Compound 1.29, 2-[2-fluoro-4-[5-(trifluoromethyl)-1,2,4-oxadiazol-3-yl]phenyl]-N-(2-oxo-1-piperidyl)acetamide] gave a melting point of 154 to 156 °C. The same compound yielded a pest or weed control at 200 ppm in data set [1] of no less than 80%. Besides, the pest or weed control at 200 ppm in data set [2] is no less than 80%. The compound also had an inhibition of growth at 20 ppm in data set [3] of no less than 80%.

On to `CN(C)NC(=O)Cc1ccc(-c2noc(C(F)(F)F)n2)c(F)c1` [Compound 1.30, 2-[3-fluoro-4-[5-(trifluoromethyl)-1,2,4-oxadiazol-3-yl]phenyl]-N′,N′-dimethyl-acetohydrazide], for which the melting point fell in the range of 163 to 165 °C. The same compound gave a pest or weed control at 200 ppm in data set [1] of no less than 80%. In addition, the pest or weed control at 200 ppm in data set [2] is no less than 80%. The inhibition of growth at 20 ppm in data set [3] was no less than 80%.

Consider `O=C(Cc1ccc(-c2noc(C(F)(F)F)n2)c(F)c1)NN1CCOCC1` [Compound 1.31, 2-[3-fluoro-4-[5-(trifluoromethyl)-1,2,4-oxadiazol-3-yl]phenyl]-N-morpholino-acetamide], for which the melting point lay within 207 to 209 °C. In data set [2], the pest or weed control at 200 ppm is no less than 80%.

`O=C(Cc1ccc(-c2noc(C(F)(F)F)n2)c(F)c1)NN1CCCCC1=O` [Compound 1.32, 2-[3-flouro-4-[5-(trifluoromethyl)-1,2,4-oxadiazol-3-yl]phenyl]-N-(2-oxo-1-piperidyl)acetamide] had a melting point of 161 to 163 °C. In data set [1], the pest or weed control at 200 ppm was no less than 80%. Also, in data set [2], the pest or weed control at 200 ppm was no less than 80%. For the same compound, the inhibition of growth at 20 ppm in data set [3] is no less than 80%.
